Test results published in PubChem BioAssay (NCI).
Several values for one entry are separate records, joined by “and”; a condition that tells them apart may be missing. Equal entries are not always repeated.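 Where inhibition never reached the appropriate level, the endpoint shown equals the highest concentration tested. Otherwise, values were interpolated linearly from a five-concentration, 48-hour dose response in 96-well plates. Abbreviation: GI50, concentration required for 50% inhibition of growth. TGI: total growth inhibition.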

How the values were obtained:
Experiment in all cases: NCI anticancer screen, dose series, 48 h
[1] = tested on: UO-31 renal
[2] = tested on: SN12C renal
[3] = tested on: HS 578T breast
[4] = tested on: M14 melanoma
[5] = tested on: SNB-19 CNS
[6] = tested on: OVCAR-5 ovarian
[7] = tested on: SK-OV-3 ovarian
[8] = tested on: PC-3 prostate
[9] = tested on: RXF 393 renal
[10] = tested on: EKVX NSCLC

Structure (SMILES) | GI50 [1] | TGI [1] | GI50 [2] | TGI [2] | GI50 [3] | TGI [3] | GI50 [4] | TGI [4] | GI50 [5] | TGI [5] [µM] | GI50 [6] | TGI [6] | GI50 [7] [µM] | TGI [7] [µM] | GI50 [8] | TGI [8] | GI50 [9] | TGI [9] | GI50 [10] [µM] | TGI [10] [µM]
Cn1cc(-c2cnc3ccc4ccc(CS(=O)(=O)NCc5ccccn5)cc4c(=O)c3c2)cn1 | 12.6 µM | > 100 µM | 19 µM | > 93.3 µM | 14 µM | > 100 µM | 11.9 µM | 33.6 µM | 26.6 µM | > 100 | 29.5 µM | > 100 µM | 26.5 | > 100 | 31.3 µM | > 100 µM | 12.9 µM | 35.1 µM | 44.9 | > 100
Cc1cc(Nc2ncnc3ccc(NC4=NC(C)(C)CO4)cc23)ccc1Oc1ccn2ncnc2c1 | 6.29 µM and > 10 µM | 84.4 µM and > 10 µM | 11 µM and > 10 µM | 65.5 µM and > 10 µM | 15.2 µM and > 10 µM | 62.4 µM and > 10 µM | 14.6 µM and > 10 µM | 33.1 µM and > 10 µM | 21.9 µM and > 10 µM | > 100 | 17.1 µM and > 10 µM | 62.9 µM and > 10 µM | 0.0526 | > 94.1 | 15.7 µM and > 10 µM | 66.6 µM and > 10 µM | 12.7 µM and > 10 µM | 28.9 µM and > 10 µM | 5.02 | > 10
Cc1ccc(-c2cc(C3=CC(=O)C=CC3=O)n(-c3ccc(S(N)(=O)=O)cc3)n2)cc1 | > 100 µM | > 100 µM | 58.7 µM | > 100 µM | 64.8 µM | > 100 µM | 31.8 µM | 80.9 µM | 63.7 µM | > 100 | 35.9 µM | > 100 µM |  |  | 36.5 µM | > 100 µM | > 100 µM | > 100 µM | 47.8 | > 100
CN(C)C(=O)c1cc2cnc(Nc3ccc(-c4csc5c(=O)cc(N6CCOCC6)oc45)cc3)nc2n1C1CCCC1 | 0.0537 µM | 0.287 µM | 0.21 µM | 14.6 µM | 0.134 µM | 0.648 µM | 0.184 µM | 0.601 µM | 0.217 µM | > 28.5 |  |  | 0.478 | 2.88 | 0.22 µM | 1.47 µM | 0.163 µM | 0.388 µM | 0.214 | 1.98
COC(=O)[C@]12CC[C@@H](C)[C@H](C)[C@@H]1C1=CC[C@@H]3[C@@]4(C)C=C(O)C(=O)[C@@]5(C)COC(=C54)C[C@@]3(C)[C@]1(C)CC2 | 10.1 µM | 24.4 µM |  |  | 16.1 µM | 49.9 µM | 11.7 µM | 27.3 µM | 15.8 µM | 37.9 | 20.9 µM | 49.6 µM | 14.6 | 32.5 | 4.77 µM | 18.5 µM | 7.09 µM | 24.9 µM | 8.37 | 26.5
Cc1ccc2c(O)c(O)cc(NC(C)CCCN)c2n1 (centres undefined) | 7.77 µM | 43 µM | 3.89 µM | 24.8 µM | 13.9 µM | 49.4 µM | 33.6 µM | > 88.1 µM |  |  | 7.36 µM | 25.2 µM | > 78.6 | > 100 | 22.9 µM | > 66.5 µM | > 69.1 µM | > 100 µM | 25.3 | > 83.1
COc1cc(/C=C2\CN(C)C/C(=C\c3cc(CN4CCCCC4)c(O)c(OC)c3)C2=O)cc(CN2CCCCC2)c1O | 3.78 µM | 17.7 µM | 3.24 µM | 12.8 µM | 3.27 µM | 80.6 µM | 3.02 µM | 10.8 µM |  |  | 2.29 µM | 5.81 µM | 7.71 | 37.2 | 4.36 µM | 26.2 µM | 2.01 µM | 6.86 µM | 4.57 | 17.6
COc1ccc2nc3cc(Cl)ccc3c(NCCCNCCC(C)O)c2c1 (centres undefined) | 1.11 µM | 3.27 µM |  |  | 1.05 µM | 3.62 µM | 0.59 µM | 2.02 µM | 0.423 µM | 2.69 | 0.331 µM | 2.46 µM | 0.465 | 2.62 | 0.496 µM | 2.35 µM | 0.414 µM | 1.74 µM | 0.473 | 2.41
COc1cccc(/C=C/c2cnc3ccccc3n2)c1OC |  | > 100 µM |  | > 100 µM |  | 68.5 µM |  | > 100 µM |  |  |  | > 100 µM |  | > 100 |  | > 100 µM |  | 96.1 µM |  | > 100
Cc1ccc2c(c1)NC(=O)CC(c1ccccc1)=N2 |  | > 100 µM |  | > 100 µM |  | > 100 µM |  | > 100 µM |  | > 100 |  | > 100 µM |  | > 100 |  | > 100 µM |  |  |  | > 100
CCOC(=O)/C=C/C(C(=O)/C=C/c1ccc(O)c(OC)c1)=C(O)\C=C\c1ccc(O)c(OC)c1 | 16.9 µM | 49.1 µM | 1.88 µM | 8.16 µM | 4.25 µM | 41.7 µM | 2.2 µM | 5.15 µM | 5.14 µM | 27.2 | 3.17 µM | 7.56 µM | 8.07 | 25.4 | 12.8 µM | > 100 µM |  |  | 5.75 | 42
